Measured values: ChEMBL document CHEMBL1201862, “PubChem BioAssay data set” (2004)
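Each compound was tested at five concentrations against cells in 96-well plates for 48 hours. Abbreviation: GI50, concentration required for 50% inhibition of growth.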 Activity calls are given as the source filed them. Rule as the data show it: active = GI50 up to about 1.1 µM and inactive = higher.

Columns and labels:
Assay in all cases: DTP human tumour cell line panel, 48 h
786-0 = system: 786-0
A498 = system: A498
A549 = system: A549
ACHN = system: ACHN
BT-549 = system: BT-549
CAKI-1 = system: CAKI-1
CCRF-CEM = system: CCRF-CEM
COLO 205 = system: COLO 205
DLD-1 = system: DLD-1
DMS-114 = system: DMS-114
DMS-273 = system: DMS-273
DU-145 = system: DU-145
EKVX = system: EKVX
HCC 2998 = system: HCC 2998
HCT-116 = system: HCT-116
HCT-15 = system: HCT-15
HL-60 = system: HL-60
HOP-18 = system: HOP-18
HOP-62 = system: HOP-62
HOP-92 = system: HOP-92
HT-29 = system: HT-29
Hs-578T = system: Hs-578T
IGROV-1 = system: IGROV-1
K562 = system: K562
KM-20L2 = system: KM-20L2
KM12 = system: KM12
LOX IMVI = system: LOX IMVI
LXFL 529 = system: LXFL 529
M14 = system: M14
M19-MEL = system: M19-MEL
MCF7 = system: MCF7
MDA-MB-231 = system: MDA-MB-231
MDA-N = system: MDA-N
MOLT-4 = system: MOLT-4
Malme-3M = system: Malme-3M
NCI-H226 = system: NCI-H226
NCI-H23 = system: NCI-H23
NCI-H460 = system: NCI-H460
NCI-H522 = system: NCI-H522
NCI/ADR-RES = system: NCI/ADR-RES
OVCAR-3 = system: OVCAR-3
OVCAR-4 = system: OVCAR-4
OVCAR-5 = system: OVCAR-5
OVCAR-8 = system: OVCAR-8
PC-3 = system: PC-3
RPMI-8226 = system: RPMI-8226
RXF 393 = system: RXF 393
SF-268 = system: SF-268
SF-295 = system: SF-295
SF-539 = system: SF-539
SK-MEL-2 = system: SK-MEL-2
SK-MEL-5 = system: SK-MEL-5
SK-OV-3 = system: SK-OV-3
SN12C = system: SN12C
SNB-19 = system: SNB-19
SNB-75 = system: SNB-75
SNB-78 = system: SNB-78
SR = system: SR
SW-620 = system: SW-620
T47D = system: T47D
TK-10 = system: TK-10
U-251 = system: U-251
UACC-257 = system: UACC-257
UACC-62 = system: UACC-62
UO-31 = system: UO-31
XF498 = system: XF498

Question: What does the source list for Nc1nc(N)c(CCCCc2ccc([N+](=O)[O-])cc2)c(N)n1?
Answer: GI50 (786-0): 8.67 µM (inactive); GI50 (A498): > 100 µM (inactive); GI50 (A549): 7.29 µM (inactive); GI50 (ACHN): 27.9 µM (inactive); GI50 (BT-549): > 100 µM (inactive); GI50 (CAKI-1): > 96.6 µM (inactive); GI50 (CCRF-CEM): > 20.3 µM (inactive); GI50 (COLO 205): > 94 µM (inactive); GI50 (DLD-1): 27 µM (inactive); GI50 (DMS-114): 20.8 µM (inactive); GI50 (DMS-273): 11.6 µM (inactive); GI50 (DU-145): 76 µM (inactive); GI50 (EKVX): > 100 µM (inactive); GI50 (HCC 2998): 38.1 µM (inactive); GI50 (HCT-116): 3.93 µM (inactive); GI50 (HCT-15): 6.65 µM; GI50 (HL-60): 2.84 µM (inactive); GI50 (HOP-18): > 100 µM (inactive); GI50 (HOP-62): > 100 µM (inactive); GI50 (HOP-92): 99.5 µM (inactive); GI50 (HT-29): 7.67 µM (inactive); GI50 (Hs-578T): > 100 µM (inactive); GI50 (IGROV-1): 23.6 µM (inactive); GI50 (K562): 3.86 µM (inactive); GI50 (KM-20L2): 36.1 µM (inactive); GI50 (KM12): 36.3 µM (inactive); GI50 (LOX IMVI): 6.62 µM (inactive); GI50 (LXFL 529): 47.8 µM (inactive); GI50 (M14): 31 µM (inactive); GI50 (M19-MEL): > 100 µM (inactive); GI50 (MCF7): > 100 µM (inactive); GI50 (MDA-MB-231): > 100 µM (inactive); GI50 (MDA-N): > 100 µM (inactive); GI50 (MOLT-4): 8.22 µM (inactive); GI50 (Malme-3M): 41.9 µM (inactive); GI50 (NCI-H226): > 100 µM (inactive); GI50 (NCI-H23): 10.6 µM (inactive); GI50 (NCI-H460): 5.68 µM (inactive); GI50 (NCI-H522): > 83.6 µM (inactive); GI50 (NCI/ADR-RES): > 100 µM (inactive); GI50 (OVCAR-3): > 100 µM (inactive); GI50 (OVCAR-4): > 100 µM (inactive); GI50 (OVCAR-5): 78.7 µM (inactive); GI50 (OVCAR-8): 22.3 µM (inactive); GI50 (PC-3): 7.71 µM (inactive); GI50 (RPMI-8226): > 25.9 µM (inactive); GI50 (RXF 393): 24.9 µM (inactive); GI50 (SF-268): > 50.4 µM (inactive); GI50 (SF-295): 17.1 µM (inactive); GI50 (SF-539): > 85.3 µM (inactive); GI50 (SK-MEL-2): > 100 µM (inactive); GI50 (SK-MEL-5): 16.7 µM (inactive); GI50 (SK-OV-3): > 100 µM (inactive); GI50 (SN12C): > 79.4 µM (inactive); GI50 (SNB-19): > 100 µM (inactive); GI50 (SNB-75): > 100 µM (inactive); GI50 (SNB-78): > 100 µM (inactive); GI50 (SR): 10.6 µM (inactive); GI50 (SW-620): > 30.5 µM (inactive); GI50 (T47D): > 100 µM (inactive); GI50 (TK-10): > 100 µM (inactive); GI50 (U-251): 10.6 µM (inactive); GI50 (UACC-257): > 96.2 µM (inactive); GI50 (UACC-62): 8.67 µM (inactive); GI50 (UO-31): > 100 µM (inactive); GI50 (XF498): > 100 µM (inactive)
